Reference: paper PMC7911516, “Investigation of the Factors Responsible for the Poor Oral Bioavailability of Acacetin in Rats: Physicochemical and Biopharmaceutical Aspects” (Pharmaceutics, 2021)
Like-named read-outs stand apart in the source and are kept apart here.

What was measured:
[1] = In situ closed-loop study (jejunal loop); assay type: in vivo, rat
Experimental: The in situ closed-loop study was performed as previously described with slight modification. Briefly, after minimal abdominal incision under light ether anesthetization and sufficient washing of the contents within the GI tract, the jejunal loop was closed by ligation performed at approximately 2 cm distal to both ends of each jejunal section. Acacetin suspension (final concentration: 1 mg/mL) was prepared by dispersing acacetin powder in the vehicle solution for oral study and subsequently diluting it 5-fold with the SIF (final composition: 2% DMSO, 1% EtOH, and 17% PEG400 in the SIF). After injecting 0.2 mL of acacetin suspension into each loop using a l-mL 31-gauge syringe, the whole GI tract was carefully returned to its original position in the abdominal cavity. At 4 h after the injection, each loop was removed, transferred into a beaker containing 50 mL of methanol, and handled similar to the GI samples in the in vivo pharmacokinetic study. As control (in vitro isolated loop) groups, the jejunal closed-loop was prepared in the same manner as the in situ loop study, removed from the rat intestinal tract using scissors with special care not to damage the loop, and transferred to a glass beaker. Then, acacetin dispersed in the vehicle was injected into the isolated loop. After 0-h and 4-h incubation at 37 °C, the remaining fraction of acacetin in the isolated loop was measured in the same manner as the procedure for the GI sample in the in vivo pharmacokinetic study.

[2] = design: method as in PMID 25456423; settings: oral, 1.4–1.676 mg/kg in rats; cited from earlier work
[3] = Disappearance in rat plasma and tissue S9 fractions; assay type: in vitro ADME; settings: 10 μM, 5 min, S9 0.5 mg/mL, NADPH or UDPGA/alamethicin
Experimental: The rat gut, spleen, kidney, liver, heart, brain, and lung were excised after cervical dislocation, rinsed with cold saline, blotted dry with tissue paper, and weighed. Each tissue sample was homogenized using a homogenizer (Ultra-Turrax T10 basi; IKA-Werke GmbH & Co. KG, Staufen, Germany) in cold 0.25 M sucrose solution. The homogenate was centrifuged at 9000× g for 30 min, and the supernatant fraction was stored at −80 °C until further use. The reaction mixture consisted of substrate, plasma, or tissue S9 fractions (protein concentration: 0.5 mg/mL) and NADPH (1 mM) or UDPGA (2 mM) in Tris buffer (100 mM; pH 7.4). After preincubation at 37 °C for 5 min, acacetin (final concentration: 10 μM) was added to initiate the enzyme reaction. After 5 min of incubation with shaking at 37 °C, the reaction was terminated by mixing the reaction mixture with acetonitrile containing IS (volume four times that of the reaction mixture). After vortex-mixing and centrifugation at 16,000× g for 10 min, 100 μL of the supernatant was obtained and stored at −80 °C until further LC-MS/MS assay.

[4] = design: method as in PMID 28421306; settings: oral, 5 mg/kg in mice; cited from earlier work
[5] = design: method as in doi:10.5958/0974-360X.2019.00624.3; settings: oral administration at 10 mg/kg; cited from earlier work
[6] = Intravenous pharmacokinetic study in rats; assay type: in vivo
Experimental: The rats were fasted overnight before the experiment and anesthetized using an intramuscular injection of zoletil at 20 mg/kg. The femoral artery and vein were cannulated with a polyethylene tube (Clay Adams, Parsippany, NJ, USA). Acacetin (dissolved in a vehicle composed of DMSO, ethanol, and PEG400 (10:5:85, v/v/v)) was administered intravenously (10 mg/kg) or orally (100 mg/kg) to rats. Approximately 250 μL of blood was collected via the femoral artery at 0, 2, 5, 15, 30, 45, 60, 120, and 180 min after intravenous administration and at 0, 2, 5, 15, 30, 45, 60, 90, 120, and 180 min after oral administration. The cannula was flushed with heparin (20 IU/mL in saline) at each time point to prevent blood clotting. Following centrifugation of the blood sample at 8000× g and 4 °C for 2 min, 120 μL of plasma was obtained. Urine was collected at 1-h intervals in an ice-cold container over 24 h. After urine collection at 24 h, each rat was sacrificed by cervical dislocation; the entire GI tract (including its contents and feces) was excised, transferred into a beaker containing 100 mL methanol, and cut into small pieces using scissors. After manual stirring with a glass rod for 1 min, a 50-μL aliquot of the supernatant was collected. The plasma, urine (Ae24h), and GI tract (GI24h) samples were stored at −80 °C until further LC-MS/MS analysis. A noncompartmental analysis (WinNonlin ver. 3.1; Certara USA Inc., Princeton, NJ, USA) was performed to determine the following pharmacokinetic parameters: the AUCinf, area under plasma concentration versus time curve from time zero to the last sampling time (AUClast), t1/2, total body clearance (CL), apparent volume of distribution at steady state (Vss), and absolute oral bioavailability (F). The Cmax and time to reach Cmax (Tmax) were directly obtained from the plasma concentration versus time data.

## COc1ccc(-c2cc(=O)c3c(O)cc(O)cc3o2)cc1 [acacetin, Acacetin]
[1]; = 2.9 − 2.34
  Fraction of dose eliminated by GI and hepatic first-pass metabolism: 0.56 % of the dose
[1]; =100 − 2.9
  Fraction unabsorbed from the GI tract: 97.1 % of the dose
[1]; difference isolated loop vs in situ loop
  Portion absorbed from the loop: 2.9%
[1]; jejunal loop, 4-h incubation at 37 °C
  Remaining fraction in the in vitro isolated loop: 78.9%
[1]; rat jejunal loop, 4 h after injection
  Remaining fraction in the in situ loop: 76.0%
[2]
  Cmax: 0.01902 µg/mL
[3]
  Tissue-dependent metabolizing activity (disappearance rate): the liver exhibited significantly higher metabolizing activity than all the tested tissues
[4]
  Cmax: 0.017 µg/mL
  F: 1.30%
[5]
  Cmax: 1.668 µg/mL
  bioavailability: 84%
[6]; IV 10 mg/kg
  Urinary and GI (including biliary) excretion of unchanged acacetin: 1.5–12.8 % of dose
[6]; IV 10 mg/kg, GI tract at 24 h
  GI24h: 6.66 ± 5.34 % of dose
[6]; IV 10 mg/kg, urine 24 h
  Ae24h: 2.50 ± 1.15 % of dose
[6]; Sprague-Dawley, rat, blood (plasma CL divided by RB), IV 10 mg/kg, read-out: Total blood clearance (CL/RB)
  clearance: 11.5 ± 2.04 L/h/kg
[6]; rat, IV 10 mg/kg, total plasma clearance, read-out: CL
  clearance: 11.9 ± 2.16 L/h/kg
[6]; rat, plasma, IV 10 mg/kg
  AUC(0-inf): 0.855 µg·h/mL
  half-life: 40.3 ± 7.2 min
[6]; rat, plasma, IV 10 mg/kg, read-out: Vss
  Vd: 2.22 ± 0.507 L/kg
[6]; speculated from blood clearance vs hepatic blood flow
  Hepatic extraction ratio: ~1
